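1) Cells in 96-well plates. 2) Compound, 48 h, 5 concentrations. 3) Linear interpolation between surrounding doses. 4) Unreached endpoint = highest concentration. GI50: concentration for 50% inhibition of growth.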 The source made the active and inactive calls. No stated cut-off is given here; in the data, active = GI50 up to about 1.1 µM and inactive = higher.
Columns and labels:
Assay in all cases: inhibition of tumour cell growth, NCI panel, 48 h
[1] = test system: SF-539
[2] = test system: HOP-92
[3] = test system: MOLT-4
[4] = test system: K562
[5] = test system: CAKI-1
[6] = test system: A549
[7] = test system: SK-MEL-5
[8] = test system: SNB-19
[9] = test system: UO-31
[10] = test system: TK-10
[11] = test system: Hs-578T
[12] = test system: OVCAR-5
[13] = test system: T47D
[14] = test system: HCT-15
[15] = test system: OVCAR-3
[16] = test system: M14
[17] = test system: NCI/ADR-RES
[18] = test system: SK-MEL-28
[19] = test system: MDA-MB-435
[20] = test system: MDA-N

| Compound | GI50 [1] | GI50 [2] | GI50 [3] | GI50 [4] | GI50 [5] | GI50 [6] | GI50 [7] | GI50 [8] | GI50 [9] | GI50 [10] | GI50 [11] | GI50 [12] | GI50 [13] | GI50 [14] | GI50 [15] | GI50 [16] | GI50 [17] | GI50 [18] | GI50 [19] | GI50 [20] |
| --- | --- | --- | --- | --- | --- | --- | --- | --- | --- | --- | --- | --- | --- | --- | --- | --- | --- | --- | --- | --- |
| CSc1ccc(/C=C/C(=O)c2nc3ccccc3[nH]2)cc1 | 4.45 µM (inactive) | 77.1 µM (inactive) | 3.02 µM (inactive) | 4.41 µM (inactive) | 2.26 µM (inactive) | 18.2 µM (inactive) | 21.2 µM (inactive) | 16.1 µM (inactive) | 3.66 µM (inactive) | 3.58 µM (inactive) | 37.2 µM (inactive) | 25.2 µM (inactive) | 3.95 µM (inactive) | 11.8 µM | 16.6 µM (inactive) | 15.9 µM (inactive) | 20.1 µM (inactive) | 31.6 µM (inactive) | 6.22 µM (inactive) | 7.36 µM (inactive) |
| Nc1ccc(S(=O)(=O)NCc2nccs2)cc1 | 19.1 µM (inactive) | 18.8 µM (inactive) | 23.2 µM (inactive) | 23.5 µM (inactive) | 28.4 µM (inactive) | 27.9 µM (inactive) | 15.8 µM (inactive) | 29.1 µM (inactive) | 22.3 µM (inactive) | 22.2 µM (inactive) | 27.3 µM (inactive) | 17.9 µM (inactive) | 24.1 µM (inactive) | 26.7 µM | 34 µM (inactive) | 18.2 µM (inactive) | 23.8 µM (inactive) | 18.1 µM (inactive) | 19.6 µM (inactive) | 22.3 µM (inactive) |
| [O-][S@@+]1c2ccc3ccccc3c2N[C@@H]2[C@H]1[C@H]1C=C[C@@H]2C1 | > 100 µM (inactive) | 38.4 µM (inactive) | 26.6 µM (inactive) | 37.1 µM (inactive) | > 100 µM (inactive) | 57.5 µM (inactive) | 28 µM (inactive) | > 100 µM (inactive) | 64.4 µM (inactive) | 51.1 µM (inactive) | 30.1 µM (inactive) | > 100 µM (inactive) | 16.5 µM (inactive) | 33.1 µM | 11.9 µM (inactive) | 48.4 µM (inactive) | 25.8 µM (inactive) | 98.6 µM (inactive) | 24.9 µM (inactive) | 20.8 µM (inactive) |
| CCCC[C@@H](C)/C=C1\CN2CCC[C@H]2[C@@](C)(O)[C@@H]1O | 62.2 µM (inactive) | 17.2 µM (inactive) | > 100 µM (inactive) | > 100 µM (inactive) | 4.2 µM (inactive) | 43.7 µM (inactive) | 79.1 µM (inactive) | 58.9 µM (inactive) | 50.7 µM (inactive) | > 100 µM (inactive) | > 100 µM (inactive) | > 100 µM (inactive) | 30.8 µM (inactive) | > 100 µM | > 100 µM (inactive) | 53 µM (inactive) | 58.9 µM (inactive) | > 100 µM (inactive) | 96.2 µM (inactive) | > 100 µM (inactive) |
| CC(C)(C)c1cc(C2COC(=O)COCC(=O)OCCOCCOCCO2)cc(C(C)(C)C)c1O (stereo not given) | 45.5 µM (inactive) | 22.9 µM (inactive) | > 100 µM (inactive) | > 100 µM (inactive) | 24.7 µM (inactive) | > 31.6 µM (inactive) | > 100 µM (inactive) | > 100 µM (inactive) | 18.6 µM (inactive) | 20.4 µM (inactive) | 17.9 µM (inactive) | 28.4 µM (inactive) | > 100 µM (inactive) | > 100 µM | > 100 µM (inactive) | 19.4 µM (inactive) | > 100 µM (inactive) | 19.2 µM (inactive) | 20.5 µM (inactive) | 19.6 µM (inactive) |
| CCCCCCCCCCCCCCCCCC(=O)Nc1ccn(C2OC(CO)C(O)C2O)c(=O)n1 (stereo not given) | > 76.6 µM (inactive) | 58.1 µM (inactive) | 0.343 µM (active) | 7.67 µM (inactive) | 10.5 µM (inactive) | 2.99 µM (inactive) | 47.9 µM (inactive) | 19.4 µM (inactive) | 5.87 µM (inactive) | > 100 µM (inactive) | > 100 µM (inactive) | > 70.5 µM (inactive) | > 100 µM (inactive) | 33 µM | 7.93 µM (inactive) | 14.2 µM (inactive) | 30.5 µM (inactive) | 31.9 µM (inactive) | 19.3 µM (inactive) | > 100 µM (inactive) |
